Laboratory results taken from patent US10351519B2, “Sulfamate derivative compounds, processes for preparing them and their uses” (BIO-PHARM SOLUTIONS CO., LTD., priority 2016, dated 2019).

Key:
Assay type in all cases: in vivo
[1] = system: Sprague-Dawley rats; experiment: Lithium-pilocarpine induced epilepsy test, intervention; conditions: Rattus norvegicus, iv, i.v. at SE onset, read-out: Lithium pilocarpine model(inter) ED50
Procedure: Male Sprague-Dawley rats (purchased from Orient Bio Inc. Korea) of body weight 175 grams were used for these studies and 3 rats per cage were housed for 4-5 days. On the day prior to SE, rats received 127 mg/kg lithium chloride (Sigma, St. Louis, Mo., U.S.A.) intraperitoneally (i.p.). Approximately 18-20 h following this treatment, rats were given an i.p. injection of CD97 dose (30-43 mg/kg) pilocarpine (Sigma). An i.p. injection of 2 mg/kg methyl-scopolamine (Sigma) was administered 30 min prior to pilocarpine to block the effects of the muscarinic agonist on peripheral cholinergic receptors. Test drugs were dissolved in 20% tween80 (Sigma).
The drugs were administered intravenously (i.v.) in a volume of 2 ul/g body weight at SE onset. Pharmacological effects of all of the test materials were evaluated to compare test groups (n=3-6) with a control group (n=3-6). Control group was administered vehicle only. The animals were then transferred to observation cages and observed continuously for 90 min. Seizure was elicited in approximately 95% of the control group. Protection was defined as complete absence of seizure grade 3-5 (Racine scale; Racine, 1972) over the 90-min observation period. The effective dose of the compound necessary to protect 50% of the animals against seizures compared to controls (i.e. ED50) was determined by a curve fitting program (Excel 2007, Microsoft).

[2] = system: ICR mice; experiment: Writhing test (0.6% acetic acid); conditions: for ED50: Mus musculus, po
Procedure: To examine the pain relief effect of the sulfamate compounds, a writhing test was conducted, referring to Fischer, L. G. et al. (2008).
ICR mice (male, 24-28 g; Orient Bio, Korea) were habituated before test in test room for 1 hour. Animals were fasted 2 hr, before administration of compounds. Each of Compounds was orally administered at the three dose, 10 ul/g, by bodyweight (All compounds were dissolved in a vehicle of 30% (v/v) PEG 400 or 20% (v/v) Tween 80. The control group was treated with the vehicle without compounds.
0.25-2 hour after the administration of Compounds, 0.6% acetic acid at the dose of 10 ul/g, by bodyweight was injected into the mice. Animals were habituated in the cage for 5 min. 5 min after habituation, the number of writhes (abdominal constriction) was conted for 15 min, referring to Korzeniewska-Rybicka, I. et al. (1998) and compared with that of a control.

[3] = system: Sprague-Dawley rats; experiment: Antiallodynic activity on post operative-induced pain model; conditions: intraperitoneal injection; for ED50: Rattus norvegicus, ip, read-out: Post Operation ED50
From the text: Male Sprague-Dawley rats (230-250 g, Orient Bio, Korea), were habituated at least 3 days before surgery and were allowed free access to food and water throughout the experimentation. Room temperature and humidity were maintained at 24±2 and 50±10%, respectively. The process of performing the post-operation model's surgery was adapted from Brennan et al (1996). At first, rats with allodynia (threshold valueless than 8 g) were excluded in Pre-von Frey Test. During the post-operation surgery, rats were anesthetized under gaseous anesthesia with 2% isoflurane. The rat was placed, lying face down on 37 degree warm plate to prevent against hypothermia. The ipsilateral plantar aspect (left side) of the hind paw was prepared in a sterile manner with a 10% povidone-iodine solution. A 1 cm longitudinal incision was made with a number 10 blade, through the skin and fascia of the ipsilateral plantar aspect of the foot, starting from 0.5 cm from the proximal edge of the heel and extending toward the toes. Rats' plantar muscles were elevated and incised longitudinally. After hemostasis with gentle pressure, the skin was opposed with 2 mattress sutures of 4-0 Dafilon.
After 24 hours of recovery, rats with a good response (threshold less than 4 g) in Pre-von Frey Test were selected. According to this response, we made three groups with each group having equal average responses: Group 1, post-operation and drug treated; Group 2, post-operation and vehicle treated; Group 3, no post-operation and vehicle treated. In this study, Group 3 was the sham control (positive) group. […]
For efficacy measure, the threshold value of group C was assigned 100% efficacy, and the percentage of the threshold values of group A compared to group C (for each different dose level) were calculated as the efficacies. Base on these efficacy values, ED50 was calculated using log fitting. […]
For pain threshold test, all animals were placed in a stainless steel meshed chamber and habituated for 30 min in the test cage. The tactile sensitivity of the ipsilateral hind paw was measured using the up-and-down method (Dixon, 1980) with seven von Frey monofilaments (0.4, 1, 2, 4, 6, 8, and 15 g) using 3 trials. The 50% paw withdrawal threshold for each paw was calculated using the following formula: [Xth] log=[vFr] log+ky, where [vFr] is the force of the last von Frey filament used, k=0.2249 which is the average interval (in log units) between the von Frey monofilaments, y which is a value that depends upon the pattern of withdrawal responses, and Xth which is the threshold value (Dixon, 1980). […]
The relative values compared to the sham (% control) were calculated and shown in Table 7, which show an antiallodynic effect of the compound of examples on Post operation-induced pain model in rats.

Structure (SMILES)	ED50 [1] [mg/kg]	Writhing test(po) Peak Time [2] [h]	ED50 [2] [mg/kg]	ED50 [3] [mg/kg]	Post Operation Peak Time [3] [h]
C[C@@H](OS(N)(=O)=O)[C@H](O)c1c(Cl)cccc1Cl [Example 8, (1R, 2R)-1-(2,6-dichlorophenyl)-1-hydroxypropan-2-yl sulfamate]	44.8	0.25	50.6	4.2	0.5
C[C@H](OS(N)(=O)=O)[C@@H](O)c1c(Cl)cccc1Cl [Example 7, (1S, 2S)-1-(2,6-dichlorophenyl)-1-hydroxypropan-2-yl sulfamate]	23.3	0.5	69.6	5.8	0.5
